Patent EP4737450A1 (Longwood Pharmaceuticals (Hangzhou) Co., Ltd, priority 2023, dated 2025)

Legend:
[1] = biological target: T1, plasma kallikrein (PKa) (Homo sapiens, UniProt P03952); assay: Inhibitory activity against plasma kallikrein in vitro (fluorescence intensity enzyme assay, Pro-Phe-Arg-AMC substrate); assay type: biochemical; conditions: Pro-Phe-Arg-AMC substrate
T1 construct: purchased R & D 2497-SE
Outline: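 Fluorescence intensity enzyme assay with 10 nM enzyme and 60 µM Pro-Phe-Arg-AMC (final concentrations). Compounds in DMSO, tested in duplicate over a dose series. IC50 from nonlinear regression curve fitting.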

[2] = biological target: T1, plasma kallikrein (PKa); assay: PKa inhibition in kaolin-activated human platelet-poor plasma (PPP); assay type: biochemical; conditions: Pro-Phe-Arg-AMC substrate, fluorescence signal
Experimental: Test Example 2. Evaluation of the compounds of the present invention in terms of PKa Inhibition in Kaolin-Activated Human PPP: Platelet-poor plasma (PPP) obtained from human whole blood, anticoagulated with Na - Citrate, was incubated with various concentrations of the test compounds and 25, 75, 250, or 750 µg/mL kaolin in assay buffer for 20 minutes at 37°C, so that a concentration response of the test compounds was obtained with respect to various kaolin concentrations. The positive drug was diluted in accordance with the reference concentration and diluted 3-fold with the diluent as the first point.
50 nL of compounds were then transferred to a 384 assay plate containing 2 replicates per well. The 384 assay plate was centrifuged at 1000 rpm/min. 2.5 µL of human plasma working solution was added to each assay well. The 384 assay plate was centrifuged at 1000 RPM. 2.5 µL of kaolin working solution was added to each assay well. The 384 assay plate was centrifuged at 1000 RPM and incubated at 25°C for 20 minutes. 5 µL of Pro-Phe-Arg-AMC working solution was added to each assay well. The 384 assay plate was centrifuged at 1000 RPM and incubated at 25°C for 60 minutes. BMG reads the fluorescence signal.
The percent inhibition of the compound was calculated according to the following formula: [formula]

[3] = biological target: KLK1 (Homo sapiens, UniProt P06870); assay: Inhibitory activity against KLK1 in vitro (biochemical assay)
Outline: (§1)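 Compounds were dispensed acoustically from DMSO and tested in duplicate. IC50 values came from nonlinear regression curve fitting.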

[4] = biological target: FXIa (Homo sapiens, UniProt P03951); assay: Inhibitory activity against FXIa in vitro (biochemical assay)
Outline: as §1

[5] = plasma kallikrein enzyme assay, read-out: PKa IC50

FXIa, sequence (P03951 388-625 limits assumed): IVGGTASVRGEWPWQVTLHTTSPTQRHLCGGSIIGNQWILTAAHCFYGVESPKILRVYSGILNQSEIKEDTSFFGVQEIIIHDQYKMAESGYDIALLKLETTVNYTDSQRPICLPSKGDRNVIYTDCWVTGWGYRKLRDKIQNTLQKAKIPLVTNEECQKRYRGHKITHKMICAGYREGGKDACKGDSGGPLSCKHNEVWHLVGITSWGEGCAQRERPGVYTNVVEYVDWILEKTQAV
FXIa, sequence (P03951 19-387 partner limits assumed): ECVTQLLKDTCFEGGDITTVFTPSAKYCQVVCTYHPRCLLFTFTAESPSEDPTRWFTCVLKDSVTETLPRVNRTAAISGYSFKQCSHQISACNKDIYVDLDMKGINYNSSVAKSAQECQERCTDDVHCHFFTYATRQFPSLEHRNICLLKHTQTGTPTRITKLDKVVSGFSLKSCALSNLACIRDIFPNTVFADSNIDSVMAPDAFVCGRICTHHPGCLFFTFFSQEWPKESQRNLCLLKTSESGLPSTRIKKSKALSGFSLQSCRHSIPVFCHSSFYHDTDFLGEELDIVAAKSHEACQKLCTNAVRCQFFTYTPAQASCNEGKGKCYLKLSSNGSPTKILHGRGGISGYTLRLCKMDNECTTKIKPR
KLK1, sequence (P06870 25-262, species assumed): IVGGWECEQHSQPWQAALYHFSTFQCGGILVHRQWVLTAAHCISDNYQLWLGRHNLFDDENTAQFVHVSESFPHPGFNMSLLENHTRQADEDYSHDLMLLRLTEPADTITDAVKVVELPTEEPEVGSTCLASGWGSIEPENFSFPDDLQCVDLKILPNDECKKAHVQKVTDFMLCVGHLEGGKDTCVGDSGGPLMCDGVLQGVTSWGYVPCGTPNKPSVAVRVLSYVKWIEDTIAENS
T1 sequence (P03952 391-638 limits assumed): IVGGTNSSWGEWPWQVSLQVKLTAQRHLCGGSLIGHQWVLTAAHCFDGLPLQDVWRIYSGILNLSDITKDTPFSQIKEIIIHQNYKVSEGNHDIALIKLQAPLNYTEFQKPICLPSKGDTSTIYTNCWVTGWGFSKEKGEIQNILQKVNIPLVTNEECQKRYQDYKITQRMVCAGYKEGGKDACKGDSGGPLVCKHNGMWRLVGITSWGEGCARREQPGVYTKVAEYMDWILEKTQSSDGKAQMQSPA
T1 sequence (P03952 20-390 partner limits assumed): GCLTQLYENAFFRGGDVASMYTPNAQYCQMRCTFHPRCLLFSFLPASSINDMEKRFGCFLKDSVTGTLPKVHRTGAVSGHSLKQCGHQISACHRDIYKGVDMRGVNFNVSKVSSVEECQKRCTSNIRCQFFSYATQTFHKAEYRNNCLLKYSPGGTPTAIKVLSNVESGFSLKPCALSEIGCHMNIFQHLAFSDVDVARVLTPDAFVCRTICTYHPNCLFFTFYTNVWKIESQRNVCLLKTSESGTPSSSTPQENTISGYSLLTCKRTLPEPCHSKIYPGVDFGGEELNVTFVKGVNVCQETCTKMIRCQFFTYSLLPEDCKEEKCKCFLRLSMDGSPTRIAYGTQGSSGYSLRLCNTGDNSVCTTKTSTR

IC50 [1, 5] [nM]	IC50 [2] [nM]	IC50 ([3]; values in nM) [nM]	IC50 ([4]; values in nM) [nM]	IC50 ([3]; values given in µM) [nM]	IC50 ([4]; values given in µM) [nM]	Compound	IC50 ([1]; PKa IC50, plasma kallikrein enzyme assay) [nM]
0.213	7.51	> 500	> 500			COCc1nn(Cc2ccc(Cn3cccn3)cc2)cc1C(=O)NCc1c(C)cc(N)nc1C [Compound 14, 1-(4-((1H-pyrazol-1-yl)methyl)benzyl)-N-((6-amino-2,4-dimethylpyridin-3-yl)methyl)-3-(methoxymethyl)-1H-pyrazol-4-carboxamide]	
0.408	7.92			> 10000	> 10000	Cc1cc(N)nc(C)c1CNC(=O)c1cnc(Cc2cn3cc(C4CC4)ccc3n2)o1 [Compound 18]	
0.633	23.5			> 10000	> 10000	Cc1cc(N)nc(C)c1CNC(=O)c1coc(Cc2cn3cc(C4CC4)ccc3n2)n1 [Compound 19]	
< 0.05	7.99			> 10000	> 10000	Cc1cc(N)nc(C)c1CNC(=O)c1ncn(Cc2ccc(Cn3cc(F)ccc3=O)cc2)n1 [Compound 23]	
0.16	6.7			> 10000	> 10000	N=C(N)c1ccc(CNC(=O)c2coc(Cc3cn4cc(C5CC5)ccc4n3)n2)cc1 [Compound 37]	
< 0.05	73.4			> 10000	> 10000	COCc1nn(Cc2cn3cc(C4CC4)ccc3n2)cc1C(=O)NCc1ccc(C(=N)N)cc1 [Compound 39]	
0.96	12.5			> 10000	> 10000	Nc1nccc2cc(CNC(=O)c3ncn(Cc4ccc(Cn5ccccc5=O)cc4)n3)ccc12 [Compound 76]	
0.35	8.38			> 10000	> 10000	N=C(N)c1ccc(CNC(=O)c2cnn(Cc3ccc(CC4CC4)cc3)c2C(F)(F)F)cc1 [Compound 109]	
0.16	14.9			> 10000	> 10000	Nc1noc2ccc(CNC(=O)c3cnn(Cc4ccc(Cn5ccccc5=O)cc4)c3)cc12 [Compound 214]	
0.08	19.3			> 10000	> 10000	COCc1nn(Cc2ccc(Cn3ccccc3=O)cc2)cc1C(=O)NCc1ccc(C(=N)N)cc1F [Compound 241]	
2.27	40.7			> 10000	> 10000	N=C(N)c1ccc(CNC(=O)c2cnn(Cc3ccc(CC4CC4)cc3)c2)cn1 [Compound 242]	

Compound	IC50 [1, 5] [nM]	IC50 [2] [nM]	IC50 ([3]; values in nM) [nM]	IC50 ([4]; values in nM) [nM]	IC50 ([3]; values given in µM) [nM]	IC50 ([4]; values given in µM) [nM]	IC50 ([1]; PKa IC50, plasma kallikrein enzyme assay) [nM]
N=C(N)c1ccc(CNC(=O)c2cnn(Cc3ccc(Oc4ccccc4)cc3)c2)cc1 [Compound 128]		13.2			> 10000	> 10000	0.56
